Reference: ChEMBL document CHEMBL1201862, “PubChem BioAssay data set” (2004)
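Test compounds were applied to cells in 96-well plates for 48 hours at 5 doses. The concentration for 50% growth inhibition is given as GI50.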 Active and inactive are the calls of the source. Cut-off read from the data, not from the text of the source: active = GI50 up to about 1.1 µM and inactive = higher.

Assays:
Assay in all cases: DTP human tumour cell line panel, 48 h
[1] = tested on: 786-0
[2] = tested on: A549
[3] = tested on: HCC 2998
[4] = tested on: HCT-15
[5] = tested on: HL-60
[6] = tested on: IGROV-1
[7] = tested on: MOLT-4
[8] = tested on: NCI-H460
[9] = tested on: OVCAR-3
[10] = tested on: SF-268
[11] = tested on: SF-539
[12] = tested on: SK-MEL-2
[13] = tested on: SNB-75
[14] = tested on: SR
[15] = tested on: TK-10
[16] = tested on: UACC-62

| SMILES | GI50 [1] | GI50 [2] | GI50 [3] | GI50 [4] [µM] | GI50 [5] | GI50 [6] | GI50 [7] | GI50 [8] | GI50 [9] | GI50 [10] | GI50 [11] | GI50 [12] | GI50 [13] | GI50 [14] | GI50 [15] | GI50 [16] |
| --- | --- | --- | --- | --- | --- | --- | --- | --- | --- | --- | --- | --- | --- | --- | --- | --- |
| Cc1ccc2c(C)c3ccc4ccccc4c3c[n+]2c1.[O-][Cl+3]([O-])([O-])[O-] | 9.18 µM (inactive) | 16.3 µM (inactive) | 12.9 µM (inactive) | 52.1 | 31.6 µM (inactive) | 31.4 µM (inactive) | 3.99 µM (inactive) | 14.3 µM (inactive) | 7.35 µM (inactive) | 2.57 µM (inactive) | 11.5 µM (inactive) | 13.9 µM (inactive) | 11.2 µM (inactive) | 12 µM (inactive) | 53.5 µM (inactive) | 13.7 µM (inactive) |
| COC(=O)C(/C(=N/N)C(=O)Nc1cc(Cl)ccc1Cl)c1nc2ccc([N+](=O)[O-])cc2nc1O (stereo not drawn) | > 100 µM (inactive) | > 100 µM (inactive) | 74.6 µM (inactive) | 76.4 | > 100 µM (inactive) | > 100 µM (inactive) | 17 µM (inactive) | > 100 µM (inactive) | > 100 µM (inactive) | 92.3 µM (inactive) | 93.3 µM (inactive) | > 100 µM (inactive) | – | > 100 µM (inactive) | > 100 µM (inactive) | > 100 µM (inactive) |
| O=c1[nH]nc2ccccc2c1Cc1ccccc1 | > 100 µM (inactive) | > 100 µM (inactive) | 59.3 µM (inactive) | > 100 | – | > 100 µM (inactive) | > 100 µM (inactive) | > 100 µM (inactive) | > 100 µM (inactive) | > 100 µM (inactive) | > 100 µM (inactive) | > 100 µM (inactive) | 96.6 µM (inactive) | – | > 100 µM (inactive) | > 100 µM (inactive) |
| CC(=O)C1C(=O)N(C(C)C)C[C@@H]2CCC(=O)C[C@H]12 (stereo partly drawn) | > 100 µM (inactive) | > 100 µM (inactive) | > 100 µM (inactive) | > 100 | > 100 µM (inactive) | > 100 µM (inactive) | > 100 µM (inactive) | > 100 µM (inactive) | > 100 µM (inactive) | > 100 µM (inactive) | > 100 µM (inactive) | > 100 µM (inactive) | > 100 µM (inactive) | – | > 100 µM (inactive) | > 100 µM (inactive) |
| CCN(N=O)C1C2(CCCC2)NC(=O)C12CCCC2 (stereo not drawn) | > 100 µM (inactive) | > 100 µM (inactive) | > 100 µM (inactive) | > 100 | > 100 µM (inactive) | > 100 µM (inactive) | > 100 µM (inactive) | > 100 µM (inactive) | > 100 µM (inactive) | > 100 µM (inactive) | > 100 µM (inactive) | – | > 100 µM (inactive) | > 100 µM (inactive) | > 100 µM (inactive) | > 100 µM (inactive) |
| CCOC(=O)c1nc2ccc(Cl)cc2c2c1CCO2 | > 100 µM (inactive) | > 100 µM (inactive) | > 100 µM (inactive) | 99.1 | 18.2 µM (inactive) | 58.2 µM (inactive) | 53.5 µM (inactive) | > 100 µM (inactive) | > 100 µM (inactive) | 90.8 µM (inactive) | 95.1 µM (inactive) | – | 24 µM (inactive) | – | 76.7 µM (inactive) | 87.7 µM (inactive) |
| CC(C)C1CCC/C=C/C=C/C=C/C=C/C(OC2OC(C)C(O)C(N)C2O)CC2OC(O)(CC(O)CC(O)C(O)CCC(=O)O1)CC(O)C2C(=O)O (stereo not drawn) | > 52.5 µM (inactive) | > 52.5 µM (inactive) | – | > 52.5 | > 52.5 µM (inactive) | > 52.5 µM (inactive) | > 52.5 µM (inactive) | – | > 52.5 µM (inactive) | > 52.5 µM (inactive) | > 52.5 µM (inactive) | – | > 52.5 µM (inactive) | > 52.5 µM (inactive) | – | > 52.5 µM (inactive) |
| C=CNC(=O)NC(=O)CSc1nc(=O)c(-c2ccccc2NC(=O)C(F)(F)F)n[nH]1 | 51.2 µM (inactive) | > 100 µM (inactive) | > 100 µM (inactive) | > 100 | – | > 100 µM (inactive) | > 100 µM (inactive) | 48.4 µM (inactive) | 38.3 µM (inactive) | 37.4 µM (inactive) | 74.6 µM (inactive) | > 100 µM (inactive) | 0.071 µM (active) | 84.3 µM (inactive) | 68.9 µM (inactive) | > 100 µM (inactive) |
| Cc1c2n(c(=O)[nH]c1=O)C1OC(CO)C(O2)C1O (stereo not drawn) | > 100 µM (inactive) | > 100 µM (inactive) | – | > 100 | > 100 µM (inactive) | > 100 µM (inactive) | > 100 µM (inactive) | > 100 µM (inactive) | > 100 µM (inactive) | > 100 µM (inactive) | > 100 µM (inactive) | > 100 µM (inactive) | > 100 µM (inactive) | > 100 µM (inactive) | > 100 µM (inactive) | > 100 µM (inactive) |
| O=C(c1ccc(Cl)cc1)N(C(=S)N1CCN(c2ccccn2)CC1)C1CCCCC1 | 36.4 µM (inactive) | 45.1 µM (inactive) | – | 43.8 | 17.3 µM (inactive) | > 100 µM (inactive) | 24.3 µM (inactive) | 30 µM (inactive) | 45.9 µM (inactive) | 27.3 µM (inactive) | 61.7 µM (inactive) | > 100 µM (inactive) | > 100 µM (inactive) | 41.1 µM (inactive) | > 100 µM (inactive) | > 100 µM (inactive) |
| CCc1c(Cc2[nH]c(Cc3[nH]c(C=O)c(C)c3CC)c(CC)c2CC)[nH]c(C=O)c1C | > 100 µM (inactive) | > 100 µM (inactive) | > 100 µM (inactive) | > 100 | > 100 µM (inactive) | – | > 100 µM (inactive) | > 100 µM (inactive) | > 100 µM (inactive) | > 100 µM (inactive) | > 100 µM (inactive) | > 10 µM (inactive) | 34.6 µM (inactive) | > 100 µM (inactive) | > 100 µM (inactive) | > 100 µM (inactive) |
| O=C(O)c1ccccc1/N=N/c1ccc2oc(=O)c(C(=O)Nc3ccccc3)cc2c1 | 70.8 µM (inactive) | 40.8 µM (inactive) | – | 32.7 | 24.4 µM (inactive) | 46.5 µM (inactive) | 32.8 µM (inactive) | 36.6 µM (inactive) | 20.4 µM (inactive) | – | 31.3 µM (inactive) | – | 33 µM (inactive) | – | 61.5 µM (inactive) | 22.9 µM (inactive) |
| COC(=O)Cc1cc(=O)oc2c1C(=O)CCC2 | > 100 µM (inactive) | > 100 µM (inactive) | > 100 µM (inactive) | > 100 | > 100 µM (inactive) | > 100 µM (inactive) | > 100 µM (inactive) | > 100 µM (inactive) | > 100 µM (inactive) | > 100 µM (inactive) | > 100 µM (inactive) | > 100 µM (inactive) | 12.1 µM (inactive) | – | > 100 µM (inactive) | > 100 µM (inactive) |
| Nc1cc(O)nc(SC2=NC(N)CC(O)C2)n1 (stereo not drawn) | > 100 µM (inactive) | – | > 100 µM (inactive) | > 100 | – | > 100 µM (inactive) | > 100 µM (inactive) | > 100 µM (inactive) | > 100 µM (inactive) | – | > 100 µM (inactive) | > 100 µM (inactive) | > 100 µM (inactive) | > 100 µM (inactive) | > 100 µM (inactive) | > 100 µM (inactive) |
| CCCN(CCCN)/[N+]([O-])=N\O | > 100 µM (inactive) | > 100 µM (inactive) | > 100 µM (inactive) | > 100 | > 100 µM (inactive) | > 100 µM (inactive) | > 100 µM (inactive) | > 100 µM (inactive) | > 100 µM (inactive) | > 100 µM (inactive) | > 100 µM (inactive) | > 100 µM (inactive) | > 100 µM (inactive) | > 100 µM (inactive) | – | 0.195 µM (active) |
| C[S+](C)CCOC(=O)C(=[N+]=[N-])c1ccc([N+](=O)[O-])cc1 | > 100 µM (inactive) | > 100 µM (inactive) | > 100 µM (inactive) | > 100 | > 100 µM (inactive) | > 100 µM (inactive) | > 100 µM (inactive) | > 100 µM (inactive) | > 100 µM (inactive) | > 100 µM (inactive) | > 100 µM (inactive) | > 100 µM (inactive) | > 100 µM (inactive) | – | > 100 µM (inactive) | > 100 µM (inactive) |
| COC1(OC)C(N(C)C)=C(Cl)C(=O)/C1=C/C=O | > 100 µM (inactive) | > 100 µM (inactive) | > 100 µM (inactive) | 98.9 | 77.4 µM (inactive) | > 100 µM (inactive) | > 100 µM (inactive) | > 100 µM (inactive) | 60.1 µM (inactive) | > 100 µM (inactive) | – | – | – | 57.3 µM (inactive) | > 100 µM (inactive) | 40 µM (inactive) |
| COC1OC(C)C(O)CC1OS(=O)(=O)c1ccc(C)cc1 (stereo not drawn) | > 100 µM (inactive) | > 100 µM (inactive) | – | > 100 | > 100 µM (inactive) | > 100 µM (inactive) | > 100 µM (inactive) | > 100 µM (inactive) | > 100 µM (inactive) | > 100 µM (inactive) | > 100 µM (inactive) | > 100 µM (inactive) | 37.9 µM (inactive) | – | > 100 µM (inactive) | > 100 µM (inactive) |
| CC(C)(C)c1cc(C(P(=O)(O)O)P(=O)(O)O)cc(C(C)(C)C)c1O | > 100 µM (inactive) | > 100 µM (inactive) | > 100 µM (inactive) | > 100 | > 100 µM (inactive) | > 100 µM (inactive) | > 100 µM (inactive) | > 100 µM (inactive) | > 100 µM (inactive) | > 100 µM (inactive) | > 100 µM (inactive) | > 100 µM (inactive) | 95.1 µM (inactive) | – | > 100 µM (inactive) | > 100 µM (inactive) |
